The record followed here is US7119115B2, “Indazole or indole derivatives, and use thereof in human medicine and more particularly in oncology” (Aventis Pharma S.A., priority 2001, dated 2006).

Data set [1] deals with T1, Tubulin (Sus scrofa, UniProt P02550+P02554).
T1 construct: Tubulin is purified from pig brain according to published methods; from tissue; host or cells: pig brain
Description: Evaluation of the inhibition of tubulin polymerization (turbidimetry at 350 nm). The format is biochemical. Particulars: concentration that inhibits the rate of polymerization by 50%; pig brain tubulin 10 μM. As for the experimental part:
Briefly, the brains are ground and centrifuged in an extraction buffer. The tubulin contained in the supernatant of the extract undergoes two successive cycles of polymerization at 37° C. and depolymerization at 4° C., before being separated from the MAPs (Microtubule Associated Proteins) by chromatography on a phosphocellulose P11 column (Whatman). […] It is stored in a buffer known as RB/2 30% glycerol, the composition of which is 50 mM MES-NaOH [2-(N-morpholino)ethanesulphonic acid], pH 6.8; 0.25 mM MgCl2; 0.5 mM EGTA; 30% glycerol (v/v), 0.2 mM GTP (guanosine-5′-triphosphate).
The polymerization of tubulin to microtubules is monitored by turbidimetry as follows: the tubulin is adjusted to a concentration of 10 μM (1 mg/ml) in RB/2 30% glycerol buffer to which 1 mM GTP and 6 mM MgCl2 are added. […] The increase in the turbidity of the solution is monitored at 350 nm.
The products are dissolved at 10 mM in DMSO and added at variable concentrations (0.5 to 10 μM) to the tubulin solution before polymerization.

The structures appear in SMILES notation.

T1 sequence (P02550 whole entry): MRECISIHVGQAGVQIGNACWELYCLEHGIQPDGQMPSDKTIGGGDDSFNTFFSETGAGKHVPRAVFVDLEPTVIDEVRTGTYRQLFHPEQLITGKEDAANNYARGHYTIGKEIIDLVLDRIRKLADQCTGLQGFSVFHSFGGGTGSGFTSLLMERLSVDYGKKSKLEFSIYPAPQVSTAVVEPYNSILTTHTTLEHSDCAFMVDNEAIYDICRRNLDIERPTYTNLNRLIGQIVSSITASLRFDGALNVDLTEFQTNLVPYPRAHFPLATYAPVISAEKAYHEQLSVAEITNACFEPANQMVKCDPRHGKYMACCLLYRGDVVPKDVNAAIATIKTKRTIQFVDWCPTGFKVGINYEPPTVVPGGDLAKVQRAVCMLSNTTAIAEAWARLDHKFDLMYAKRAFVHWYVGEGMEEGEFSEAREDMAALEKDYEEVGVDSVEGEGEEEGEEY
T1 sequence (P02554 whole entry): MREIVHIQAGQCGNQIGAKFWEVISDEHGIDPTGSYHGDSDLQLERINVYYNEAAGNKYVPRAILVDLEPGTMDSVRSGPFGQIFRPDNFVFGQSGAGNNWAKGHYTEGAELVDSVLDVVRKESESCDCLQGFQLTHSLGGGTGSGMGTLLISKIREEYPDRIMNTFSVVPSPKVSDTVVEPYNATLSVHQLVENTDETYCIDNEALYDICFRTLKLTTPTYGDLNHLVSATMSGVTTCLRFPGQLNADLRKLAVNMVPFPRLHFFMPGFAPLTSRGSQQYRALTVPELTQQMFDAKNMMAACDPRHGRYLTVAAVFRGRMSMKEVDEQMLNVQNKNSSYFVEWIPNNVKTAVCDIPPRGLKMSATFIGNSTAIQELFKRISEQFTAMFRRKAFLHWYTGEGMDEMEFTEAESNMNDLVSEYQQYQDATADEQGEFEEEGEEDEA

Consider `O=C(c1n[nH]c2c1C=CC(c1ccccc1)(c1ccccc1)C2)N1CCC1` [Example 3-2, Azetidin-1-yl(6,6-diphenyl-6,7-dihydro-1H-indazol-3-yl)methanone], for which the melting point (in general, the temperature, or range, at which the solid turns liquid) was found to be 285 °C. Besides, the IC50 (commonly the concentration that inhibits the measured activity by half) in data set [1] amounted to 4.5 µM.
